Tests used:
scuticociliates [1] = experiment: Scuticociliates extermination effect of candidate substances in MEM medium; format: cell-based; conditions: MEM medium
Procedure: CHSE-214 cell line into which scuticociliates were inoculated was cultured in advance. The CHSE-214 cell line was cultured in an incubator using an MEM medium at 22° C. Scuticociliates inoculated into the cell line proliferated for 3 days by which the number reaches to be capable of analyzing in vitro anti-scuticociliates effect. Scuticociliates that feed on the cell line and sufficiently grow were mixed with the candidate substance and the activity of scuticociliates was measured.
In order to analyze the antiparasitic activity of the above 19 types of candidate substances of scuticociliates extermination drugs, scuticociliates were cultured for 3 days, and 100 μl (1×10^5) was dispensed into each well of 96 wells. The candidate substances were diluted by each concentration and the final volume was dispensed into 100 μl. Thereafter, the two were mixed and finally made into 200 μl.

scuticociliates [2] = experiment: Scuticociliates extermination effect of candidate substances in seawater medium; format: cell-based; conditions: seawater medium, 4 hour
Procedure: For this, scuticociliates were cultured in CHSE-214 cell line (using MEM medium), and then scuticociliates were collected and centrifuged with sterilized seawater or artificial seawater (20‰) to replace them with a seawater medium. Each of 100 μl (1×10^5) was dispensed into each well of 96 wells, followed by further culture for 30 minutes. The candidate substances diluted in seawater to have a volume of 100 μl per each concentration were mixed with scuticociliates to have the final volume of 200 μl and cultured for 4 hour.

Compound	Survival or Death of scuticociliates (activity and shape, microscope) (scuticociliates [1]; Dosage 10 ppm)	Survival or Death of scuticociliates (activity and shape, microscope) (scuticociliates [1]; Dosage 50 ppm)	Survival or Death of scuticociliates (activity and shape, microscope) (scuticociliates [1]; Dosage 100 ppm)	Survival or Death of scuticociliates (activity and shape, microscope) (scuticociliates [1]; Dosage 200 ppm)	Survival or Death of scuticociliates (activity and shape, microscope) (scuticociliates [1]; Dosage 500 ppm)	Survival or Death of scuticociliates (activity and shape, microscope) (scuticociliates [1]; Dosage 600 ppm)	Survival or Death of scuticociliates (activity and shape, microscope) (scuticociliates [1]; Dosage 800 ppm)	Survival or Death of scuticociliates (activity and shape, microscope) (scuticociliates [1]; Dosage 1000 ppm)	Survival or Death of scuticociliates (activity and shape, microscope) (scuticociliates [2]; Dosage 50 ppm)	Survival or Death of scuticociliates (activity and shape, microscope) (scuticociliates [2]; Dosage 100 ppm)	Survival or Death of scuticociliates (activity and shape, microscope) (scuticociliates [2]; Dosage 500 ppm)	Survival or Death of scuticociliates (activity and shape, microscope) (scuticociliates [2]; Dosage 600 ppm)	Survival or Death of scuticociliates (activity and shape, microscope) (scuticociliates [2]; Dosage 700 ppm)	Survival or Death of scuticociliates (activity and shape, microscope) (scuticociliates [2]; Dosage 800 ppm)	Survival or Death of scuticociliates (activity and shape, microscope) (scuticociliates [2]; Dosage 1000 ppm)	Survival or Death of scuticociliates (activity and shape, microscope) (scuticociliates [1]; Dosage 1500 ppm)	Survival or Death of scuticociliates (activity and shape, microscope) (scuticociliates [1]; Dosage 2000 ppm)	Survival or Death of scuticociliates (activity and shape, microscope) (scuticociliates [1]; Dosage 2500 ppm)	Survival or Death of scuticociliates (activity and shape, microscope) (scuticociliates [1]; Dosage 3000 ppm)	Survival or Death of scuticociliates (activity and shape, microscope) (scuticociliates [1]; Dosage 3500 ppm)	also measured
O=C(OCc1ccccc1)c1ccccc1 [Benzyl benzonate]	Survival	Survival	Survival	Survival	Survival	Survival	Δ	Δ	Survival	Survival	Δ	Death	Death	Death	–	–	–	–	–	–	–
COC(=O)Nc1nc2ccc(Sc3ccccc3)cc2[nH]1 [Fenbendazole]	Survival	Survival	Survival	Survival	Survival	Survival	Δ	Death	Survival	Survival	Survival	Survival	Survival	Δ	Death	–	–	–	–	–	Survival or Death of scuticociliates (activity and shape, microscope) (scuticociliates [1]; Dosage 300 ppm): Survival; Survival or Death of scuticociliates (activity and shape, microscope) (scuticociliates [1]; Dosage 400 ppm): Survival; Survival or Death of scuticociliates (activity and shape, microscope) (scuticociliates [1]; Dosage 700 ppm): Survival; Survival or Death of scuticociliates (activity and shape, microscope) (scuticociliates [1]; Dosage 900 ppm): Δ; Survival or Death of scuticociliates (activity and shape, microscope) (scuticociliates [2]; Dosage 10 ppm): Survival; Survival or Death of scuticociliates (activity and shape, microscope) (scuticociliates [2]; Dosage 200 ppm): Survival; Survival or Death of scuticociliates (activity and shape, microscope) (scuticociliates [2]; Dosage 300 ppm): Survival; Survival or Death of scuticociliates (activity and shape, microscope) (scuticociliates [2]; Dosage 400 ppm): Survival; Survival or Death of scuticociliates (activity and shape, microscope) (scuticociliates [2]; Dosage 900 ppm): Δ
c1ccc(C2CN3CCSC3=N2)cc1 (stereo not shown) [Tetramisole]	–	–	–	–	Survival	–	–	Survival	–	–	Survival	–	–	–	Survival	Survival	Survival	Survival	Survival	Survival	Survival or Death of scuticociliates (activity and shape, microscope) (scuticociliates [1]; Dosage 4000 ppm): Survival; Survival or Death of scuticociliates (activity and shape, microscope) (scuticociliates [2]; Dosage 1500 ppm): Survival; Survival or Death of scuticociliates (activity and shape, microscope) (scuticociliates [2]; Dosage 2000 ppm): Survival; Survival or Death of scuticociliates (activity and shape, microscope) (scuticociliates [2]; Dosage 2500 ppm): Survival; Survival or Death of scuticociliates (activity and shape, microscope) (scuticociliates [2]; Dosage 3000 ppm): Survival; Survival or Death of scuticociliates (activity and shape, microscope) (scuticociliates [2]; Dosage 3500 ppm): Survival; Survival or Death of scuticociliates (activity and shape, microscope) (scuticociliates [2]; Dosage 4000 ppm): Survival
CC[C@H](C)[C@H]1O[C@]2(CC[C@@H]1C)C[C@@H]1C[C@@H](C/C=C(\C)[C@@H](O[C@H]3C[C@H](OC)[C@@H](O[C@H]4C[C@H](OC)[C@@H](O)[C@H](C)O4)[C@H](C)O3)[C@@H](C)/C=C/C=C3\CO[C@@H]4[C@H](O)C(C)=C[C@@H](C(=O)O1)[C@]34O)O2 [Ivermectin]	–	–	–	–	Survival	–	–	Survival	–	–	Survival	–	–	–	Survival	Survival	Survival	Survival	Survival	Survival	Survival or Death of scuticociliates (activity and shape, microscope) (scuticociliates [1]; Dosage 4000 ppm): Survival; Survival or Death of scuticociliates (activity and shape, microscope) (scuticociliates [2]; Dosage 1500 ppm): Survival; Survival or Death of scuticociliates (activity and shape, microscope) (scuticociliates [2]; Dosage 2000 ppm): Survival; Survival or Death of scuticociliates (activity and shape, microscope) (scuticociliates [2]; Dosage 2500 ppm): Survival; Survival or Death of scuticociliates (activity and shape, microscope) (scuticociliates [2]; Dosage 3000 ppm): Survival; Survival or Death of scuticociliates (activity and shape, microscope) (scuticociliates [2]; Dosage 3500 ppm): Survival; Survival or Death of scuticociliates (activity and shape, microscope) (scuticociliates [2]; Dosage 4000 ppm): Survival
